Like-named read-outs stand apart in the source and are kept apart here.
Biological target: NR1/NR2A (Homo sapiens (Human), UniProt Q05586+Q12879)
Assay: FDSS Ca2+ influx inhibition assay in HEK293 cells expressing NR1/NR2A
Assay type: cell-based
Conditions: 3 μM glutamate, 3 μM glycine, 1 mM Ca2+
Experimental: Cell Culture and plating: HEK293 cells expressing NR1/NR2A (Chantest, Cleveland, Ohio) were grown to 70-80% confluency as an adherent monolayer in standard tissue culture flasks at 37° C., 5% CO2 per supplier's instructions.
After induction, cell culture medium was removed and cells were rinsed once with Ca^2+ and Mg^2+-free Dulbecco's phosphate buffered saline. Cells were then removed from the flask using TrypLE™ Express (Life Technologies) according to the manufacturer's instructions and collected to 50 ml centrifuge tubes. Following two washes in Ca^2+/Mg^2+-free HBSS with 20 mM HEPES (HHnoCa), cells were counted and viability assessed using trypan blue. To load cells with Ca^2+-sensitive dye, they were resuspended in fluo-8 plus Component B (AAT Bioquest Products) diluted in HHnoCa and incubated 15 minutes at 37° C., followed by 30 minutes at room temp (in dark). Cells were then washed and resuspended in HHnoCa to remove extracellular dye and plated in 384-well plates (Falcon, uncoated) at 20,000-30,000 cells/well in a final volume of 25 μL/well.
FDSS Assay: To each well of the plate, 10 μL test compound, control (MK801) or HHnoCa buffer was added to a final concentration of 10 μM with a final concentration of DMSO of 0.1%. Following 10 minutes pre-incubation in the dark, plates are loaded onto the Hamamatsu FDSS 6000. After collecting baseline fluorescence images, 3 μM glutamate, 3 μM glycine, and 1 mM Ca^2+ in HHnoCa buffer is added to each well, and Ca^2+ is recorded for 3 minutes. Data were processed by computing ratio of fluorescence at the end of data collection to baseline fluorescence to assess degree of Ca^2+ influx inhibition relative to that observed in MK801.

[1] = inhibition relative to MK801, read-out: NR2A IC50

NR1/NR2A, sequence (Q12879 23-1464, other chains not shown): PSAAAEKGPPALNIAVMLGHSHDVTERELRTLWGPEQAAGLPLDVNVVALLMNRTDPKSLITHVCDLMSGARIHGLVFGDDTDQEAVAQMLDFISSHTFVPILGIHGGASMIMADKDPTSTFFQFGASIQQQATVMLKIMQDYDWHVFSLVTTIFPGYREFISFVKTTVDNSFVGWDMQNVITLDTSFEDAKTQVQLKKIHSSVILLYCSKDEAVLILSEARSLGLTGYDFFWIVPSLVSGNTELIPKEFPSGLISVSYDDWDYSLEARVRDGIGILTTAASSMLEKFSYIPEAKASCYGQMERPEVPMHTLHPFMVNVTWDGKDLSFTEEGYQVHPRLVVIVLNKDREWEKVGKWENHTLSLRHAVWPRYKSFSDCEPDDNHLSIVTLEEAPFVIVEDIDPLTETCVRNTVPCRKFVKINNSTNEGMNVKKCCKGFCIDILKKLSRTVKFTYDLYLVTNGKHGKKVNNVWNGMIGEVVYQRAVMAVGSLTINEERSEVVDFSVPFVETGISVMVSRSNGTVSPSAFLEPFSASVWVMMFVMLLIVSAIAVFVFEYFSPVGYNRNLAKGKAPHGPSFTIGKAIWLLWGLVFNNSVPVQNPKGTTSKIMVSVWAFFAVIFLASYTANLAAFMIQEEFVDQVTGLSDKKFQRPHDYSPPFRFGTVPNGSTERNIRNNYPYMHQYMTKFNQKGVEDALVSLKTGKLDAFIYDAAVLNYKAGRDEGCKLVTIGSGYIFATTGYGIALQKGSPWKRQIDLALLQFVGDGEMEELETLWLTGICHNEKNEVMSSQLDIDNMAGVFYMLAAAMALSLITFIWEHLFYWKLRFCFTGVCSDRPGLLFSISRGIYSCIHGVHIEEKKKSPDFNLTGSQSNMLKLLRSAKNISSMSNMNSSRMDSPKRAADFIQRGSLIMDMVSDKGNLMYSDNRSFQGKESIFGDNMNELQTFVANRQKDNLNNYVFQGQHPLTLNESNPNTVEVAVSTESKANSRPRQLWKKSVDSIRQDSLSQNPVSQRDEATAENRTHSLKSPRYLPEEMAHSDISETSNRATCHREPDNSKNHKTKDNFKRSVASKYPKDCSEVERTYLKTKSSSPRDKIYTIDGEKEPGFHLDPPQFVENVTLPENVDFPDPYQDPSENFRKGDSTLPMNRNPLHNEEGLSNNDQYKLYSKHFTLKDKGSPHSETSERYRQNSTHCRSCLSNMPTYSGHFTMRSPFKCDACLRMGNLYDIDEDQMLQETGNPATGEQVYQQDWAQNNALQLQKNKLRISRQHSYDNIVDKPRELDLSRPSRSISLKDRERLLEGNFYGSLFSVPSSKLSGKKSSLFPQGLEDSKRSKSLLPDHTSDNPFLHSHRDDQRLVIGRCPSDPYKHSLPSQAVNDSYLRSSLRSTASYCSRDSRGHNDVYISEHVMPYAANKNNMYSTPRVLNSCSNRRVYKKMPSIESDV

Compound | IC50 (read-out: Binned Activity) [µM] | IC50 [1] [µM]
O=C(NCc1ccno1)c1ccc(CNS(=O)(=O)c2ccc(F)c(Cl)c2)cn1 [5-(3-chloro-4-fluorobenzenesulfon-amidomethyl)-N-(1,2-oxazol-5-ylmethyl)pyridine-2-carboxamide] | 1 to 10 | 
O=C(NCc1cocn1)c1cnc(CNS(=O)(=O)c2ccc(F)c(Cl)c2)cn1 [5-(3-chloro-4-fluorobenzenesulfon-amidomethyl)-N-(1,3-oxazol-4-ylmethyl)pyrazine-2-carboxamide] | > 10 | 10
O=C(NCc1cocn1)c1ccc(CNS(=O)(=O)c2ccc(F)c(Cl)c2)cn1 [5-(3-chloro-4-fluorobenzenesulfon-amidomethyl)-N-(1,3-oxazol-4-ylmethyl)pyridine-2-carboxamide] | > 10 | 10
O=C(NCc1cnco1)c1ccc(CNS(=O)(=O)c2ccc(F)c(Cl)c2)cn1 [5-(3-chloro-4-fluorobenzenesulfon-amidomethyl)-N-(1,3-oxazol-5-ylmethyl)pyridine-2-carboxamide] | 1 to 10 | 
O=C(NCc1nccs1)c1cnc(CNS(=O)(=O)c2ccc(F)c(Cl)c2)cn1 [5-(3-chloro-4-fluorobenzenesulfon-amidomethyl)-N-(1,3-thiazol-2-ylmethyl)pyrazine-2-carboxamide] | > 10 | 10
O=C(NCc1nccs1)c1ccc(CNS(=O)(=O)c2ccc(F)c(Cl)c2)cn1 [5-(3-chloro-4-fluorobenzenesulfon-amidomethyl)-N-(1,3-thiazol-2-ylmethyl)pyridine-2-carboxamide] | 1 to 10 | 
O=C(NCc1cncs1)c1cnc(CNS(=O)(=O)c2ccc(F)c(Cl)c2)cn1 [5-(3-chloro-4-fluorobenzenesulfon-amidomethyl)-N-(1,3-thiazol-5-ylmethyl)pyrazine-2-carboxamide] | 0.1 to 1 | 
O=C(NCc1cncs1)c1ccc(CNS(=O)(=O)c2ccc(F)c(Cl)c2)cn1 [5-(3-chloro-4-fluorobenzenesulfon-amidomethyl)-N-(1,3-thiazol-5-ylmethyl)pyridine-2-carboxamide] | 0.1 to 1 | 
O=C(NCc1ccco1)c1ccc(CNS(=O)(=O)c2ccc(F)c(Cl)c2)cn1 [5-(3-chloro-4-fluorobenzenesulfon-amidomethyl)-N-(furan-2-ylmethyl)pyridine-2-carboxamide] | > 10 | 10
O=C(NCc1ccoc1)c1ccc(CNS(=O)(=O)c2ccc(F)c(Cl)c2)cn1 [5-(3-chloro-4-fluorobenzenesulfon-amidomethyl)-N-(furan-3-ylmethyl)pyridine-2-carboxamide] | > 10 | 10
O=C(NCc1cnccn1)c1cnc(CNS(=O)(=O)c2ccc(F)c(Cl)c2)cn1 [5-(3-chloro-4-fluorobenzenesulfon-amidomethyl)-N-(pyrazin-2-ylmethyl)pyrazine-2-carboxamide] | 1 to 10 | 
O=C(NCc1cnccn1)c1ccc(CNS(=O)(=O)c2ccc(F)c(Cl)c2)cn1 [5-(3-chloro-4-fluorobenzenesulfon-amidomethyl)-N-(pyrazin-2-ylmethyl)pyridine-2-carboxamide] | 1 to 10 | 
O=C(NCc1ccccn1)c1cnc(CNS(=O)(=O)c2ccc(F)c(Cl)c2)cn1 [5-(3-chloro-4-fluorobenzenesulfon-amidomethyl)-N-(pyridin-2-ylmethyl)pyrazine-2-carboxamide] | > 10 | 10
O=C(NCc1ccccn1)c1ccc(CNS(=O)(=O)c2ccc(F)c(Cl)c2)cn1 [5-(3-chloro-4-fluorobenzenesulfon-amidomethyl)-N-(pyridin-2-ylmethyl)pyridine-2-carboxamide] | > 10 | 10
O=C(NCc1cccnc1)c1cnc(CNS(=O)(=O)c2ccc(F)c(Cl)c2)cn1 [5-(3-chloro-4-fluorobenzenesulfon-amidomethyl)-N-(pyridin-3-ylmethyl)pyrazine-2-carboxamide] | 0.1 to 1 | 
O=C(NCc1cccnc1)c1ccc(CNS(=O)(=O)c2ccc(F)c(Cl)c2)cn1 [5-(3-chloro-4-fluorobenzenesulfon-amidomethyl)-N-(pyridin-3-ylmethyl)pyridine-2-carboxamide] | 0.1 to 1 | 
O=C(NCc1cccnc1)c1ncc(CNS(=O)(=O)c2ccc(F)c(Cl)c2)cn1 [5-(3-chloro-4-fluorobenzenesulfon-amidomethyl)-N-(pyridin-3-ylmethyl)pyrimidine-2-carboxamide] | > 10 | 10

Compound | IC50 (read-out: Binned Activity) [µM] | IC50 [1] [µM]
O=C(NCc1ccncc1)c1cnc(CNS(=O)(=O)c2ccc(F)c(Cl)c2)cn1 [5-(3-chloro-4-fluorobenzenesulfon-amidomethyl)-N-(pyridin-4-ylmethyl)pyrazine-2-carboxamide] | 1 to 10 | 
O=C(NCc1ccncc1)c1ccc(CNS(=O)(=O)c2ccc(F)c(Cl)c2)cn1 [5-(3-chloro-4-fluorobenzenesulfon-amidomethyl)-N-(pyridin-4-ylmethyl)pyridine-2-carboxamide] | > 10 | 10
O=C(NCc1ncccn1)c1ccc(CNS(=O)(=O)c2ccc(F)c(Cl)c2)cn1 [5-(3-chloro-4-fluorobenzenesulfon-amidomethyl)-N-(pyrimidin-2-ylmethyl)pyridine-2-carboxamide] | > 10 | 10
O=C(NCc1ccncn1)c1cnc(CNS(=O)(=O)c2ccc(F)c(Cl)c2)cn1 [5-(3-chloro-4-fluorobenzenesulfon-amidomethyl)-N-(pyrimidin-4-ylmethyl)pyrazine-2-carboxamide] | > 10 | 10
O=C(NCc1ccncn1)c1ccc(CNS(=O)(=O)c2ccc(F)c(Cl)c2)cn1 [5-(3-chloro-4-fluorobenzenesulfon-amidomethyl)-N-(pyrimidin-4-ylmethyl)pyridine-2-carboxamide] | > 10 | 10
O=C(NCc1cncnc1)c1cnc(CNS(=O)(=O)c2ccc(F)c(Cl)c2)cn1 [5-(3-chloro-4-fluorobenzenesulfon-amidomethyl)-N-(pyrimidin-5-ylmethyl)pyrazine-2-carboxamide] | 1 to 10 | 
O=C(NCc1cncnc1)c1ccc(CNS(=O)(=O)c2ccc(F)c(Cl)c2)cn1 [5-(3-chloro-4-fluorobenzenesulfon-amidomethyl)-N-(pyrimidin-5-ylmethyl)pyridine-2-carboxamide] | 1 to 10 | 
O=C(NCc1cccs1)c1ccc(CNS(=O)(=O)c2ccc(F)c(Cl)c2)cn1 [5-(3-chloro-4-fluorobenzenesulfon-amidomethyl)-N-(thiophen-2-ylmethyl)pyridine-2-carboxamide] | > 10 | 10
O=C(NCc1ccsc1)c1ccc(CNS(=O)(=O)c2ccc(F)c(Cl)c2)cn1 [5-(3-chloro-4-fluorobenzenesulfon-amidomethyl)-N-(thiophen-3-ylmethyl)pyridine-2-carboxamide] | > 10 | 10
Cc1ncc(C(C)NC(=O)c2cnc(CNS(=O)(=O)c3ccc(F)c(Cl)c3)cn2)s1 (centres unmarked) [5-(3-chloro-4-fluorobenzenesulfon-amidomethyl)-N-[1-(2-methyl-1,3-thiazol-5-yl)ethyl]pyrazine-2-carboxamide] | 0.1 to 1 | 
CC(NC(=O)c1ccc(CNS(=O)(=O)c2ccc(F)c(Cl)c2)cn1)c1ccco1 (centres unmarked) [5-(3-chloro-4-fluorobenzenesulfon-amidomethyl)-N-[1-(furan-2-yl)ethyl]pyridine-2-carboxamide] | 1 to 10 | 
CC(NC(=O)c1ccc(CNS(=O)(=O)c2ccc(F)c(Cl)c2)cn1)c1cccs1 (centres unmarked) [5-(3-chloro-4-fluorobenzenesulfon-amidomethyl)-N-[1-(thiophen-2-yl)ethyl]pyridine-2-carboxamide] | 1 to 10 | 
COc1ccc(CCNC(=O)c2ccc(CNS(=O)(=O)c3ccc(F)c(Cl)c3)cn2)cc1 [5-(3-chloro-4-fluorobenzenesulfon-amidomethyl)-N-[2-(4-methoxyphenyl)ethyl] pyridine-2-carboxamide] | > 10 | 10
CN(C)CCNC(=O)c1ccc(CNS(=O)(=O)c2ccc(F)c(Cl)c2)cn1 [5-(3-chloro-4-fluorobenzenesulfon-amidomethyl)-N-[2-(dimethylamino)ethyl] pyridine-2-carboxamide] | > 10 | 10
CN(C)CCCNC(=O)c1ccc(CNS(=O)(=O)c2ccc(F)c(Cl)c2)cn1 [5-(3-chloro-4-fluorobenzenesulfon-amidomethyl)-N-[3-(dimethylamino)propyl] pyridine-2-carboxamide] | > 10 | 10
Cc1cc(CNC(=O)c2cnc(CNS(=O)(=O)c3ccc(F)c(Cl)c3)cn2)n(C)n1 [5-(3-chloro-4-fluorobenzenesulfon-amidomethyl)-N-[(1,3-dimethyl-1H-pyrazol-5-yl)methyl]pyrazine-2-carboxamide] | > 10 | 10
Cc1cc(CNC(=O)c2ccc(CNS(=O)(=O)c3ccc(F)c(Cl)c3)cn2)n(C)n1 [5-(3-chloro-4-fluorobenzenesulfon-amidomethyl)-N-[(1,3-dimethyl-1H-pyrazol-5-yl)methyl]pyridine-2-carboxamide] | > 10 | 10

Source: patent publication US9963434B2, “N-arylmethyl sulfonamide negative modulators of NR2A” (LUC THERAPEUTICS, priority 2013, dated 2018)
